Measured values reported in patent US11286228B2, “Stilbene derivative and method for preparing same” (Ozchela Inc., priority 2016, dated 2022).
Read-outs that look alike come from different tables or passages of the source.

Key:
[1] = tested on: hepatitis C virus; assay: Antiviral activity in HCV replicon cells (Renilla luciferase); assay type: cell-based; details: read-out: Test Example 3: antiviral activity (EC50)
Experimental: The antiviral activity of the stilbene derivatives on hepatitis C virus was measured. The replicon cells that stably replicate the hepatitis C virus genome were attached to a culture plate and cultured in a CO2 incubator at 37° C. for 24 hr. The replicon cells cultured for one day were washed with a PBS solution, treated with the compounds of the present invention, and then cultured for 72 hr. The stilbene derivative-treated replicon cells were washed with a cold PBS solution and added with 20 μL of a cell lysis solution so that the cells were lysed in ice for 20 min. 100 μL of a Renilla luciferase substrate was added thereto, after which the luminescence thereof was measured and thus the amount of the hepatitis C virus genome was estimated. The amount of the hepatitis C virus genome in the stilbene derivative-treated replicon cells according to the present invention relative to the amount of the hepatitis C virus genome in dimethylsulfoxide (DMSO)-treated replicon cells is shown.
Compounds 1 to 155 of Tables 1 to 10 may be grouped as follows based on the antiviral activity (EC50) values: […]

[2] = tested on: mitochondria obtained from hepatocytes; assay: Inhibitory activity on calcium-induced mitochondrial swelling (absorbance 520 nm); details: calcium-induced swelling of extracted mitochondria, read-out: Test Example 4: inhibiting mitochondrial swelling (IC50)
Text: Cyclophilin is a key protein for forming permeability transition pores (PTP) in mitochondria. When permeability transition pores are formed, mitochondria swell, whereby the outer membrane thereof ruptures and thus cell death progresses. Such mitochondrial dysfunction causes many diseases including neurodegenerative diseases, cancer, and the like. Cyclosporine, a known cyclophilin inhibitor, is capable of preventing the formation of permeability transition pores to thus suppress mitochondrial swelling.
The mitochondrial swelling test was performed as follows. Specifically, the hepatocytes were disrupted using a Dounce tissue grinder. The disrupted cells were centrifuged at 700×g for 10 min and the supernatant was transferred into a new tube. The supernatant was centrifuged at 12,000×g for 15 min, thereby obtaining mitochondria.
When the extracted mitochondria were added with calcium, they swelled, which may be observed by measuring the absorbance at 520 nm. The stilbene derivatives are effective at inhibiting mitochondrial swelling due to calcium.
The activity of Compounds 1 to 155 of Tables 1 to 10 on inhibiting mitochondrial swelling may be determined based on IC50 values, and may be grouped as follows: […]

[3] = biological target: cyclophilin; assay: Cis-trans isomerase inhibitory activity (chymotrypsin-coupled Suc-AAPF-pNA cleavage, absorbance 390 nm); assay type: biochemical; details: cyclophilin, chymotrypsin, Suc-AAPF-pNA; read-out: Test Example 1: cis-trans isomerase inhibitory activity (IC50)
Text: Chymotrypsin cleaves a trans-type alanine-proline peptide bond. When Suc-AAPF-pNA (a peptide substrate) and chymotrypsin are mixed, the trans-type peptide substrate is cleaved and the cis-type peptide substrate remains. The remaining cis-type peptide substrate is converted into a trans form by a cis-trans isomerase and is then cleaved again by chymotrypsin. When the cis-trans isomerase is present, chymotrypsin is able to cleave a larger amount of trans-type peptide substrate within a predetermined period of time, from which the activity of the cis-trans isomerase may be determined. The amount of the cleaved trans-type peptide substrate is measured using absorbance at 390 nm. Cyclophilin has cis-trans isomerase activity, and accelerates the cleavage of trans-type peptide substrate by chymotrypsin. When the stilbene derivatives of the present invention were treated together with cyclophilin, the cleavage of the peptide substrate by chymotrypsin was not observed to accelerate. Thereby, the stilbene derivatives of the invention can be concluded to inhibit the activity of cyclophilin.

[4] = Hepatitis C virus, HCV replicon cells, 72 hr, Renilla luciferase, relative to DMSO

Structure (SMILES) | EC50 ([1]; Hepatitis C virus, 72 h) [nM] | IC50 ([2]; Hepatocyte) [nM] | IC50 [3] [nM] | EC50 [1, 4] [nM] | EC50 ([1]; HCV replicon cells, 72 hr, Renilla luciferase, relative to DMSO) [nM] | IC50 [2] [nM]
N#CC(=Cc1ccccc1CCc1ccc(Cl)cc1)c1ccc([N+](=O)[O-])cc1 [Compound 48] | 500 to 5000 | 5000 to 50000 | 20 to 200 | – | – | –
COc1ccccc1CCc1ccccc1C=C(C#N)c1ccc([N+](=O)[O-])cc1 [Compound 49] | – | 50000 to 500000 | 200 to 2000 | 5000 to 50000 | – | –
Cc1ccc(CCc2ccccc2C=C(C#N)c2ccc([N+](=O)[O-])cc2)cc1 [Compound 52] | – | 5000 to 50000 | 20 to 200 | 500 to 5000 | – | –
N#CC(=Cc1ccccc1CCc1ccc(N)cc1)c1ccc([N+](=O)[O-])cc1 [Compound 53] | – | 5000 to 50000 | 20 to 200 | 500 to 5000 | – | –
CC(C)(C)Cc1ccc(C(C#N)=Cc2ccccc2C(=O)O)cc1 [Compound 54] | – | < 5000 | ≤ 20 | < 500 | – | –
CC(C)C(C)c1ccc(C(C#N)=Cc2ccccc2C(=O)O)cc1 (stereo not drawn) [Compound 55] | – | 5000 to 50000 | 20 to 200 | 500 to 5000 | – | –
CC(c1ccc(C(C#N)=Cc2ccccc2C(=O)O)cc1)C(C)(C)C (stereo not drawn) [Compound 56] | – | 5000 to 50000 | 20 to 200 | 500 to 5000 | – | –
CC(C)(C)CCc1ccc(C(C#N)=Cc2ccccc2C(=O)O)cc1 [Compound 57] | – | < 5000 | ≤ 20 | < 500 | – | –
CC(C)C(C)Cc1ccc(C(C#N)=Cc2ccccc2C(=O)O)cc1 (stereo not drawn) [Compound 58] | 500 to 5000 | 5000 to 50000 | 20 to 200 | – | – | –
N#CC(=Cc1ccccc1C(=O)O)c1ccc(CC2CCCCC2)cc1 [Compound 59] | – | < 5000 | ≤ 20 | < 500 | – | –
N#CC(=Cc1ccccc1C(=O)O)c1ccc(CCC2CCCCC2)cc1 [Compound 60] | – | < 5000 | ≤ 20 | < 500 | – | –
N#CC(=Cc1ccccc1C(=O)O)c1ccc(CC2CC2)cc1 [Compound 61] | – | < 5000 | ≤ 20 | < 500 | – | –
N#CC(=Cc1ccccc1C(=O)O)c1ccc(CCC2CC2)cc1 [Compound 62] | – | < 5000 | ≤ 20 | < 500 | – | –
CC(C)(Cc1ccc(C(C#N)=Cc2ccccc2C(=O)O)cc1)CC1CC1 [Compound 63] | – | 5000 to 50000 | 20 to 200 | 500 to 5000 | – | –
CCCCOC(=O)c1ccccc1C=Cc1ccc(CC(C)(C)C)cc1C [Compound 67] | – | 5000 to 50000 | 20 to 200 | 500 to 5000 | – | –
CCCCOC(=O)c1ccccc1C=Cc1ccc(CC(C)(C)C)cc1CC [Compound 68] | – | 5000 to 50000 | 20 to 200 | 500 to 5000 | – | –
CCCCOC(=O)c1cc(C)ccc1C=Cc1ccc(CC(C)(C)C)cc1 [Compound 69] | – | 5000 to 50000 | 20 to 200 | 500 to 5000 | – | –
CCCCOC(=O)c1c(C=Cc2ccc(CC(C)(C)C)cc2)ccc(C)c1C [Compound 70] | – | 5000 to 50000 | 20 to 200 | 500 to 5000 | – | –
CCCOC(=O)c1ccccc1C=Cc1ccc(CC(C)(C)C)cc1 [Compound 71] | – | < 5000 | ≤ 20 | < 500 | – | –
CCCCCOC(=O)c1ccccc1C=Cc1ccc(CC(C)(C)C)cc1 [Compound 72] | – | – | ≤ 20 | – | < 500 | < 5000
CC(C)OC(=O)c1ccccc1C=Cc1ccc(CC(C)(C)C)cc1 [Compound 73] | – | < 5000 | ≤ 20 | < 500 | – | –
CC(C)(C)Cc1ccc(C=Cc2ccccc2C(=O)OCC2CCCCC2)cc1 [Compound 74] | – | < 5000 | ≤ 20 | < 500 | – | –
CC(C)(C)Cc1ccc(C=Cc2ccccc2C(=O)OCC2CCCCN2)cc1 (stereo not drawn) [Compound 75] | – | 5000 to 50000 | 20 to 200 | 500 to 5000 | – | –
CC(C)(C)Cc1ccc(C=Cc2ccccc2C(=O)OCc2ccccc2)cc1 [Compound 76] | – | < 5000 | ≤ 20 | < 500 | – | –

Structure (SMILES) | EC50 ([1]; Hepatitis C virus, 72 h) [nM] | IC50 ([2]; Hepatocyte) [nM] | IC50 [3] [nM] | EC50 [1, 4] [nM] | EC50 ([1]; HCV replicon cells, 72 hr, Renilla luciferase, relative to DMSO) [nM] | IC50 [2] [nM]
CC(C)(C)Cc1ccc(C=Cc2ccccc2C(=O)OC2CCCCC2)cc1 [Compound 77] | – | 5000 to 50000 | 20 to 200 | 500 to 5000 | – | –
CCCCOC(=O)c1ccccc1C=Cc1ccc(CC(C)CC)cc1 (stereo not drawn) [Compound 78] | – | 5000 to 50000 | 20 to 200 | 500 to 5000 | – | –
CCCCOC(=O)c1ccccc1C=Cc1ccc(CC2CCCC2)cc1 [Compound 79] | – | 5000 to 50000 | 20 to 200 | 500 to 5000 | – | –
CCCCOC(=O)c1ccccc1C=Cc1ccc(Cc2ccccc2)cc1 [Compound 81] | 500 to 5000 | 5000 to 50000 | 20 to 200 | – | – | –
CCCCOC(=O)c1ccccc1C=C(C)c1ccc(CC(C)(C)C)cc1 [Compound 82] | – | 5000 to 50000 | 20 to 200 | 500 to 5000 | – | –
CCCCOC(=O)c1c(C)cccc1C=C(C)c1ccc(CC(C)(C)C)cc1 [Compound 83] | – | 5000 to 50000 | 20 to 200 | 500 to 5000 | – | –
CCCCOC(=O)c1ccccc1C=C(C)c1ccc(CC(C)(C)C)cc1C [Compound 84] | – | 5000 to 50000 | 20 to 200 | 500 to 5000 | – | –
CCCCOC(=O)c1cc(C)ccc1C=C(C)c1ccc(CC(C)(C)C)cc1 [Compound 85] | – | 5000 to 50000 | 20 to 200 | 500 to 5000 | – | –
CCCCOC(=O)c1c(C=C(C)c2ccc(CC(C)(C)C)cc2)ccc(C)c1C [Compound 86] | – | 5000 to 50000 | 20 to 200 | 500 to 5000 | – | –
CCCOC(=O)c1ccccc1C=C(C)c1ccc(CC(C)(C)C)cc1 [Compound 87] | – | 5000 to 50000 | 20 to 200 | 500 to 5000 | – | –
CCCCCOC(=O)c1ccccc1C=C(C)c1ccc(CC(C)(C)C)cc1 [Compound 88] | – | 5000 to 50000 | 20 to 200 | 500 to 5000 | – | –
CC(=Cc1ccccc1C(=O)OC(C)C)c1ccc(CC(C)(C)C)cc1 [Compound 89] | – | 5000 to 50000 | 20 to 200 | 500 to 5000 | – | –
CC(=Cc1ccccc1C(=O)OCC1CCCCC1)c1ccc(CC(C)(C)C)cc1 [Compound 90] | – | 5000 to 50000 | 20 to 200 | 500 to 5000 | – | –
CC(=Cc1ccccc1C(=O)OCC1CCCCN1)c1ccc(CC(C)(C)C)cc1 (stereo not drawn) [Compound 91] | – | 5000 to 50000 | 20 to 200 | 500 to 5000 | – | –
CC(=Cc1ccccc1C(=O)OCc1ccccc1)c1ccc(CC(C)(C)C)cc1 [Compound 92] | – | 5000 to 50000 | 20 to 200 | 500 to 5000 | – | –
CC(=Cc1ccccc1C(=O)OC1CCCCC1)c1ccc(CC(C)(C)C)cc1 [Compound 93] | – | 5000 to 50000 | 20 to 200 | 500 to 5000 | – | –
CCCCOC(=O)c1ccccc1C=C(C)c1ccc(CC(C)CC)cc1 (stereo not drawn) [Compound 94] | – | 5000 to 50000 | 20 to 200 | 500 to 5000 | – | –
CCCCOC(=O)c1ccccc1C=C(C)c1ccc(CC2CCCC2)cc1 [Compound 95] | – | 5000 to 50000 | 20 to 200 | 500 to 5000 | – | –
CCCCOC(=O)c1ccccc1C=C(C)c1ccc(CC2CCCCC2)cc1 [Compound 96] | – | 5000 to 50000 | 20 to 200 | 500 to 5000 | – | –
CCCCOC(=O)c1ccccc1C=C(C)c1ccc(Cc2ccccc2)cc1 [Compound 97] | 500 to 5000 | 5000 to 50000 | 20 to 200 | – | – | –
CCCCOC(=O)c1ccccc1C=C(N)c1ccc(CC(C)(C)C)cc1 [Compound 98] | – | 5000 to 50000 | 20 to 200 | 500 to 5000 | – | –
CCCCOC(=O)c1c(C)cccc1C=C(N)c1ccc(CC(C)(C)C)cc1 [Compound 99] | – | 5000 to 50000 | 20 to 200 | 500 to 5000 | – | –
CCCCOC(=O)c1ccccc1C=C(N)c1ccc(CC(C)(C)C)cc1C [Compound 100] | – | 5000 to 50000 | 20 to 200 | 500 to 5000 | – | –
CCCCOC(=O)c1cc(C)ccc1C=C(N)c1ccc(CC(C)(C)C)cc1 [Compound 101] | – | 5000 to 50000 | 20 to 200 | 500 to 5000 | – | –
